Data set [1] has as its target T1, Mammalian Thymidylate Synthase (Homo sapiens, UniProt P04818).
T1 construct: made in house; host or cells: Escherichia coli
Briefly: Thymidylate synthase inhibition, tritium release assay. Type of data set: biochemical.

In data set [2] the test system is SW480 human colon adenocarcinoma. Briefly: Tumor cell culture cytotoxicity (MTT dye reduction), SW480. The conditions noted are these: Homo sapiens. (In general: Tetrazolium assays rely on reduction of a dye to a coloured formazan, in cell work by metabolically active cells.)
Protocol: (§1) SW480 and WiDr colon adenocarcinomas, MCF-7 breast adenocarcinoma, A427 lung carcinoma and MOLT-4 T-cell leukemia were used for the primary screening of compounds. […] MCF-7, A427 and SW480 were grown in the above medium further supplemented with sodium pyruvate.
(§2) Cells are seeded into 96-well plates using a Perkin-Elmer Pro/pette. SW480 and A427 were seeded at 8,000 cells per well, MCF-7 at 10,000, Widr at 7500, and MOLT-4 at 12,500 cells per well, all in 150 µl of medium. Prior to the addition of drugs, cultures were incubated for 24 hrs at 37°. Compounds were added at 2×concentration in 150 l of medium and each concentration was assayed in triplicate. If DMSO or ethanol were used to solubilize compounds, appropriate controls were run if the concentration exceeded 0.01%. Cultures were incubated for 72 hours (96 hours for SW480 and MCF-7) in a 37° humidified incubator at 5% CO2. Inhibition of cell growth was measured using the MTT dye reduction assay.
(§3) Cell dilutions for a standard curve were prepared from a 72 hour log-phase culture. Serial dilutions were seeded in triplicate in 96-well plates and incubated at 37 degrees for one hour. MTT (3-(4,5-dimethylthiazol-2-yl)-2,5-diphenyltetrazolium bromide) was dissolved in PBS at 5 mg/ml and sonicated for 30 seconds. Using the Perkin Elmer Pro/pette, 200 μl of medium was removed and 100 μl of MTT added to the wells of the standard curve and test plates. Suspension cultures were spun for 5 min at 1000 rpm before removing medium from the wells. Plates were incubated for 1 hour at 370 on a platform shaker. Following this incubation 100 ml of medium was removed from the wells and 100 μl of DMSO added to each well. The plates were sonicated for approximately 10 seconds to solubilize the precipitated formazan dye. The absorbance of each well was measured using a Titertek Multiscan MC microtiter plate reader at 570 nm with a reference wavelength of 750 nm. Data was collected using a Mariachi Seed-2 and stored and analyzed using an IBM-AT and Lotus 1-2-3 software.
Data set [3] in a line: Cell culture cytotoxicity, D98. Type of data set: cell-based. To be noted: human, D98 bone marrow cell line, read-out: Tumor Cell Culture Cytotoxicity IC50 Other (D98).
Protocol: as §2, §3
The nature of data set [4]: Cell culture cytotoxicity, L cells. Type of data set: cell-based. The conditions noted are these: mouse, L fibroblast cell line, read-out: Tumor Cell Culture Cytotoxicity IC50 Other (L).
Protocol: as §2, §3
The subject of data set [5] is MCF-7 human breast adenocarcinoma. The experiment in a line: Tumor cell culture cytotoxicity (MTT dye reduction), MCF-7. Type of data set: cell-based.
Protocol: as §1, §2, §3
The mark [6] stands for this setting: SW480, read-out: Tumor Cell Culture Cytotoxicity IC50 SW480, Table D, 5,6-dihydro 3-methyl derivatives.
[7] abbreviates: Table B, fully aromatic 3-amino derivatives.
Setting [8] is: SW480, read-out: Tumor Cell Culture Cytotoxicity IC50 SW480, Table B, fully aromatic 3-amino derivatives.
Setting [9] is: Table E, fully aromatic 3-methyl derivatives.
Where [10] appears, read: SW480, read-out: Tumor Cell Culture Cytotoxicity IC50 SW480, Table E, fully aromatic 3-methyl derivatives.
[11] abbreviates: MCF7, Table F, fully aromatic p-aminobenzoylglutamates, read-out: Cell Culture Cytotoxicity CCCT MCF-7.
The mark [12] stands for this setting: SW480, read-out: Cell Culture Cytotoxicity CCCT SW-480, Table F, fully aromatic p-aminobenzoylglutamates.
The mark [13] stands for this setting: Table D, 5,6-dihydro 3-methyl derivatives.

For 28 compounds, melting point and IC50 results are on record in patent US6762188B1, “Pharmaceutically active benzoquinazoline compounds” (SmithKline Beecham Corporation, priority 1990, dated 2004).

Molecules are shown by their SMILES. Read-outs that look alike come from different tables or passages of the source. Where only a bound is given, the exact number is not on record here.

T1 sequence (P04818 whole entry): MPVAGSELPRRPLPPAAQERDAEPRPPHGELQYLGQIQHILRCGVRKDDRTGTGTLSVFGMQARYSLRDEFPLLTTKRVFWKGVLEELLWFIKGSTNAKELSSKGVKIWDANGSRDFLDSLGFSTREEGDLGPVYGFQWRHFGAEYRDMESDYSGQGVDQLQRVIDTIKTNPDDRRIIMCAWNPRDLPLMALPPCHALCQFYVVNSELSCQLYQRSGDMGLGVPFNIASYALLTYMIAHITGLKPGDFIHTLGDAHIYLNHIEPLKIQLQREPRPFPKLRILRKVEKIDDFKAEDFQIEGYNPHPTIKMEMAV

In turn, `Cc1nc2c(c(=O)[nH]1)-c1cc(S(N)(=O)=O)ccc1CC2` [1,2,5,6-Tetrahydro-3-methyl-1-oxobenzo(f)quinazoline-9-sulfonamide] registered a melting point greater than 240 °C. The IC50 in data set [1] lay in the range of 1 to 300 µM.

Consider `Cc1nc2c(c(=O)[nH]1)-c1cc(S(=O)(=O)Nc3ccc([N+](=O)[O-])cc3)ccc1CC2` [1,2,5,6-Tetrahydro-3-methyl-4′-nitro-1-oxobenzo(f)quinazoline-9-sulfonanilide], for which the melting point was greater than 240 °C. Moreover, the IC50 in data set [2] (setting [6]) was 30 µM.

As for `Nc1ccc2c(ccc3nc(N)nc(O)c32)c1` [3,8-Diaminobenzo(f)quinazolin-1(2H)-one], the IC50 at 72 h in data set [3] (setting [7]) is 53 µM; in data set [4] (setting [7]), 40 µM. The IC50 in data set [2] (setting [8]) was 100 µM; in data set [1] it was 1 to 300 µM.

`COCc1cc2nc(N)nc(O)c2c2ccccc12` [3-Amino-6-(methoxymethyl)benzo(f)quinazolin-1(2H)-one]: the IC50 at 72 h in data set [3] (setting [7]) came to 74 µM; in data set [4] (setting [7]), 56 µM. Also, the IC50 in data set [2] (setting [8]) is 60 µM; in data set [1] it was 1 to 300 µM.

In the case of `Nc1nc2ccc3c(Br)cccc3c2c(=O)[nH]1` [3-Amino-7-bromobenzo(f)quinazolin-1(2H)-one], the IC50 at 72 h in data set [3] (setting [7]) was 56 µM; in data set [4] (setting [7]), 28 µM. In addition, the IC50 is 10 µM in data set [2] (setting [8]) and 1 to 300 µM in data set [1].

On to `Nc1nc2ccc3c(Cl)cccc3c2c(=O)[nH]1` [3-Amino-7-chlorobenzo(f)quinazolin-1(2H)-one], for which the IC50 at 72 h in data set [3] (setting [7]) was determined as 60 µM; in data set [4] (setting [7]), 46 µM. In addition, the IC50 in data set [2] (setting [8]) was 25 µM; in data set [1], 1 to 300 µM.

`Cc1cccc2c1ccc1nc(N)[nH]c(=O)c12` [3-Amino-7-methylbenzo(f)quinazolin-1(2H)-one]: the IC50 at 72 h in data set [3] (setting [7]) came to 53 µM; in data set [4] (setting [7]), 32 µM. The IC50 in data set [2] (setting [8]) was 35 µM; in data set [1], 1 to 300 µM.

With `Nc1nc2ccc3c([N+](=O)[O-])c(F)ccc3c2c(=O)[nH]1` [3-Amino-8-fluoro-7-nitrobenzo(f)quinazolin-1(2H)-one], the IC50 at 72 h in data set [3] (setting [7]) turned out to be 20 µM; in data set [4] (setting [7]), 14 µM. For the same compound, the IC50 was 30 µM in data set [2] (setting [8]) and 1 to 300 µM in data set [1].

In the case of `CC(=O)c1ccc(NCc2ccc3ccc4nc(N)[nH]c(=O)c4c3c2)cc1` [3-Amino-9-((4-acetylanilino)methyl)benzo(f)quinazolin-1(2H)-one], the IC50 in data set [5] (MCF7, Table B, fully aromatic 3-amino derivatives, read-out: Tumor Cell Culture Cytotoxicity IC50 Other (MCF-7)) was 0.03 µM; in data set [2] (setting [8]), 0.045 µM; in data set [1], less than 1 µM.

With `Cc1nc2ccc3ccc(CNc4ccc5c(c4)CCC5=O)cc3c2c(=O)[nH]1` [3-Methyl-9-(((1-oxo-5-indanyl)amino)methyl)benzo)[f]quinazolin-1(2H)-one], the IC50 at 72 h in data set [3] (setting [9]) stood at 0.25 µM; in data set [4] (setting [9]), 0.058 µM. In data set [2] (setting [10]), the IC50 came to 0.015 µM.

Take `Cc1nc2ccc3ccc(CNc4ccc(C(=O)CCC(=O)O)cc4)cc3c2c(=O)[nH]1` [4-(4-(((1,2-Dihydro-3-methyl-1-oxobenzo[f]quinazolin-9-yl)methyl)amino)phenyl)-4-oxobutyric acid]: the IC50 at 72 h in data set [3] (setting [9]) was found to be 13.5 µM; in data set [4] (setting [9]) it was 8.8 µM. For the same compound, the IC50 in data set [2] (setting [10]) was 0.7 µM.

As for `Cc1nc2c(c(=O)[nH]1)-c1cc(S(=O)(=O)Nc3ccc(C(N)=O)cc3)ccc1CC2` [4-((1,2,5,6-Tetrahydro-3-methyl-1-oxobenzo(f)quinazolin-9-yl)sulfonamido)benzamide], the melting point turned out to be 190 °C. Also, the IC50 in data set [2] (setting [6]) turned out to be 80 µM.

With `CC(=O)c1ccc(NS(=O)(=O)c2ccc3c(c2)-c2c(nc(C)[nH]c2=O)CC3)cc1` [4′-Acetyl-1,2,5,6-tetrahydro-3-methyl-1-oxobenzo(f)quinazoline-9-sulfonanilide], the melting point is greater than 240 °C. In data set [2] (setting [6]), the IC50 amounted to 8 µM.

`Cc1nc2ccc3ccc(CNc4ccc5c(c4)CN([C@@H](CCC(=O)O)C(=O)O)C5=O)cc3c2c(=O)[nH]1` [(S)-2-(5-(((1,2-Dihydro-3-methyl-1-oxobenzo(f)quinazolin-9-yl)methyl)amino)-1-oxo-2-isoindolinyl)glutaric acid]: the IC50 in data set [5] (setting [11]) came to 0.0002 µM; in data set [2] (setting [12]), 0.0008 µM.

The compound `CCCCCCCCCCCCOC(=O)CCC(=O)c1ccc(NCc2ccc3ccc4nc(C)[nH]c(=O)c4c3c2)cc1` [Dodecyl 4-(4-(((1,2-dihydro-3-methyl-1-oxobenzo[f]quinazolin-9-yl)methyl)amino)phenyl)-4-oxobutyrate] had a melting point of 213 to 214 °C. Besides, the IC50 in data set [2] (setting [10]) was found to be 0.4 µM.

Turning to `Cc1nc2c(c(=O)[nH]1)-c1ccc([N+](=O)[O-])cc1CC2` [Example 8-NO2, 5,6-dihydro-3-methyl-8-nitrobenzo[f]quinazolin-1(2H)-one], the IC50 at 72 h in data set [3] (setting [13]) and in data set [4] (setting [13]) was 52 µM throughout. In addition, in data set [2] (setting [6]), the IC50 is 100 µM.

`CCN(CC)S(=O)(=O)c1ccc2ccc3nc(N)[nH]c(=O)c3c2c1` [Example 9-SO2NEt2, 3-Amino-N,N-diethyl-1,2-dihydro-1-oxobenzo[f]quinazoline-9-sulfonamide] had a melting point greater than 250 °C. Also, the IC50 in data set [2] (setting [8]) was 15 µM. The IC50 in data set [2] (SW480, read-out: Tumor Cell Culture Cytotoxicity IC50 SW480, Table C, 5,6-dihydro 3-amino derivatives) amounted to 30 µM.

Turning to `CC(=O)c1ccc(NCc2ccc3ccc4nc(C)[nH]c(=O)c4c3c2)cc1` [Example 35, 9-((4-Acetylanilino)methyl)-3-methylbenzo[f]quinazolin-1(2H)-one], the melting point is greater than 235 °C.

Compound `Nc1nc2ccc3ccc(CNc4ccc(F)cc4)cc3c2c(=O)[nH]1` [Example 38, 3-Amino-9-((4-fluoroanilino)methyl)benzo[f]quinazolin-1(2H)-one] gave a melting point greater than 230 °C.

In turn, `CCN(CC)S(=O)(=O)c1ccc2c(c1)-c1c(nc(C)[nH]c1=O)CC2` [N,N-Diethyl-1,2,5,6-tetrahydro-3-methyl-1-oxobenzo(f)quinazoline-9-sulfonamide] yielded a melting point of 249 to 251 °C. This compound registered an IC50 in data set [1] of 1 to 300 µM.

On to `Cc1nc2ccc3c(S(=O)(=O)Nc4ccc(C(=O)N[C@@H](CCC(=O)O)C(=O)O)cc4)cccc3c2c(=O)[nH]1` [N-(4-((1,2,-Dihydro-3-methyl-1-oxobenzo(f)quinazolin-7-yl)sulfonamido)benzoyl)-L-glutamic acid], for which the IC50 in data set [5] (setting [11]) stood at 50 µM.

On to `Cc1nc2ccc3ccc(COc4ccc(C(=O)N[C@@H](CCC(=O)O)C(=O)O)cc4)cc3c2c(=O)[nH]1` [N-(4-((1,2-Dihydro-3-methyl-1-oxobenzo(f)quinazolin-9-yl)methoxy)benzoyl)-L-glutamic acid], for which the IC50 in data set [5] (setting [11]) amounted to 7 µM; in data set [2] (setting [12]) it was 70 µM.

As for `Cc1nc2ccc3ccc(CN(C)c4ccc(C(=O)N[C@@H](CCC(=O)O)C(=O)O)cc4)cc3c2c(=O)[nH]1` [N-(4-((1,2-Dihydro-3-methyl-1-oxobenzo(f)quinazolin-9-yl)methyl)methylamino)benzoyl)-L-glutamic acid], the IC50 came to 0.018 µM in data set [5] (setting [11]) and 1.5 µM in data set [2] (setting [12]).

Consider `Nc1nc2c(c(=O)[nH]1)-c1cc(S(=O)(=O)Nc3ccc(C(=O)N[C@@H](CCC(=O)O)C(=O)O)cc3)ccc1CC2` [N-(4-((3-Amino-1,2,5,6-tetrahydro-1-oxobenzo(f)quinazolin-9-yl)-sulfonamido)benzoyl)-L-glutamic acid], for which the IC50 was determined as 0.65 µM in data set [5] (MCF7, Table G, dihydrobenzoquinazoline p-aminobenzoylglutamates, read-out: Cell Culture Cytotoxicity CCCT MCF-7) and 7.9 µM in data set [2] (SW480, read-out: Cell Culture Cytotoxicity CCCT SW-480, Table G, dihydrobenzoquinazoline p-aminobenzoylglutamates).

`Nc1nc2ccc3cc(S(=O)(=O)Nc4ccc(C(=O)N[C@@H](CCC(=O)O)C(=O)O)cc4)c(Br)cc3c2c(=O)[nH]1` [N-(4-((3-Amino-9-bromo-1,2-dihydro-1-oxobenzo(f)quinazolin-8-yl)sulfonamido)benzoyl)-L-glutamic acid] showed a melting point of 238 to 242 °C. Also, the IC50 in data set [5] (setting [11]) is greater than 50 µM. Further, the IC50 in data set [2] (setting [12]) was greater than 50 µM.

Consider `Cc1nc2ccc3ccc(CNc4ccc(C(=O)N[C@@H](CCC(=O)O)C(=O)O)c(F)c4)cc3c2c(=O)[nH]1` [N-(4-(((1,2-Dihydro-3-methyl-1-oxobenzo(f)quinazolin-9-yl)methyl)amino)-2-fluorobenzoyl)-L-glutamic acid], for which the IC50 was 0.0007 µM in data set [5] (setting [11]) and 0.02 µM in data set [2] (setting [12]).

Take `Cc1nc2ccc3ccc(CNc4ccc(C(=O)N[C@@H](CCC(=O)O)C(=O)O)cc4)cc3c2c(=O)[nH]1` [N-(4-(((1,2-Dihydro-3-methyl-1-oxobenzo(f)quinazolin-9-yl)methyl)amino)benzoyl)-L-glutamic acid]: the figures for the IC50 in data set [5] (setting [11]) and in data set [2] (setting [12]) were 0.0075 µM and 0.35 µM, respectively.

`Nc1nc2ccc3ccc(CNc4ccc(C(=O)N[C@@H](CCC(=O)O)C(=O)O)cc4)cc3c2c(=O)[nH]1` [N-(4-(((3-Amino-1,2-dihydro-1-oxobenzo(f)quinazolin-9-yl)methyl)amino)benzoyl)-L-glutamic acid]: the IC50 was determined as 0.025 µM in data set [5] (setting [11]) and 0.6 µM in data set [2] (setting [12]).

What is called melting point is the temperature, or range, at which the solid turns liquid.
